IC50 data for 50 compounds are collected here from patent publication US20170066759A1, “AROMATIC 5-MEMBERED HETEROCYCLIC DERIVATIVE HAVING TRPV4-INHIBITING ACTIVITY” (Shionogi & Co., Ltd., priority 2012, published 2017).

In general, IC50 refers to the concentration that inhibits the measured activity by half.

Some results are limits rather than exact numbers.

The target of this experiment is T1, human TRPV4 (hTRPV4/CHO cells) (Homo sapiens, UniProt Q9HBA0).
T1 construct: expressed in transfected cells; host or cells: CHO-K1
T1 sequence (Q9HBA0 whole entry): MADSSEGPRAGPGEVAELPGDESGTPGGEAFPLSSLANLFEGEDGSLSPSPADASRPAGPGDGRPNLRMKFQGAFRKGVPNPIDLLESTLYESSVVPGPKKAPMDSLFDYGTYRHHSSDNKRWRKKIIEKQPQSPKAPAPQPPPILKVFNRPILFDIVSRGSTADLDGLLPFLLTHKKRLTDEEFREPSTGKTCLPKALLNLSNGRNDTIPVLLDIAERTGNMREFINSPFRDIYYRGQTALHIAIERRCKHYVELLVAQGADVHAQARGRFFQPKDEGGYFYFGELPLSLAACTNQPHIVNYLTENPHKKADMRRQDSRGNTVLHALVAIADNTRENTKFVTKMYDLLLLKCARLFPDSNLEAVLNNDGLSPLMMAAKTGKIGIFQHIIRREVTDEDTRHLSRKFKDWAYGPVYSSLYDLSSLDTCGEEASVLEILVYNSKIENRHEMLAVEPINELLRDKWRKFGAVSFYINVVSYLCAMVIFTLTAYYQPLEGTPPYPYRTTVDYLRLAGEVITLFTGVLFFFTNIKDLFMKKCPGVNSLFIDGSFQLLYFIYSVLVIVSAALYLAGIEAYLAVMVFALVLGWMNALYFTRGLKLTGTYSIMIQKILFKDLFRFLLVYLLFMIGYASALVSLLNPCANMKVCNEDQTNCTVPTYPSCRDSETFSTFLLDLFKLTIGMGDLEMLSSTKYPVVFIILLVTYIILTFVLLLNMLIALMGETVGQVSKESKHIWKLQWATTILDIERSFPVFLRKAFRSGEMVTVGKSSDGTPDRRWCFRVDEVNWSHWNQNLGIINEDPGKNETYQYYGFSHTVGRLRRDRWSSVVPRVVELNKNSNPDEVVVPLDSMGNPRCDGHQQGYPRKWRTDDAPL
Kind of experiment: Test Example 1: TRPV4 inhibitory activity (IC50 value), 4α-PDD stimulation, Fluo4 calcium fluorescence (FLIPR TETRA). Format: cell-based. Conditions: Test Example 1, 4α-PDD stimulation, read-out: Test 1 IC50.
Consider `Cc1nc(C)c(-c2csc(NC(=O)CCC(=O)N[C@H](c3ccccc3)C(F)(F)F)n2)s1` [Compound I-494], for which the IC50 lay in the range of 0.1 to 1 µM.

As for `O=C(Nc1nc(-c2cccs2)cs1)C1CC(F)C1` (centres unmarked) [II-7], the IC50 is 1 to 8 µM.

Take `O=C(Cc1ccc(S(=O)(=O)C(F)(F)F)cc1)Nc1nc(-c2sc(CO)nc2/C=C/CO)cs1` [Compound I-320]: the IC50 is below 0.1 µM.

Take `Cc1nc(C)c(-c2csc(NC(=O)Cn3cc(-c4ccccc4)nn3)n2)s1` [Compound I-191]: the IC50 is below 0.1 µM.

As for `Cc1nc(C)c(-c2csc(NC(=O)Cn3cc(-c4ccccc4)cn3)n2)s1` [Compound I-134], the IC50 is below 0.1 µM.

`Cc1nc(C(C)O)oc1-c1csc(NC(=O)Cn2cc(C(F)(F)F)cn2)n1` (racemic) [Compound I-420]: the IC50 fell in the range of 1 to 8 µM.

For `Cc1nc(C)c(-c2csc(NC(=O)Cc3cccc(N(C)C(=O)c4ccccc4)c3)n2)s1` [Compound I-432], the IC50 was in the range of 0.1 to 1 µM.

Take `Cc1nc(C)c(-c2csc(NC(=O)Cc3cc(OCCO)cc(C(=O)N[C@H](c4ccccc4)C(F)(F)F)c3)n2)s1` [Compound I-515]: the IC50 was in the range of 0.1 to 1 µM.

As to `Cc1nc(C)c(-c2nc(NC(=O)Cc3c(F)cccc3F)sc2C(=O)Nc2ccc(Cl)cc2)s1` [Compound I-85], the IC50 fell in the range of 1 to 8 µM.

With `Cc1nc(C)c(-c2csc(NCC3Cc4cc(Cl)ccc4O3)n2)s1` (racemic) [II-48], the IC50 is below 0.1 µM.

For the compound `Cc1nc(CO)sc1-c1csc(NC(=O)[C@H]2C[C@@H](OCc3ccc(Cl)cc3)C2)n1` [Compound I-331], the IC50 is below 0.1 µM.

`Cc1nc(C)c(-c2csc(NC(=O)[C@H]3CC[C@@H](c4ccccc4)N3)n2)s1` [Compound I-215]: the IC50 is 0.1 to 1 µM.

For `Cc1nc(CO)sc1-c1csc(NC(=O)Cc2ccc(S(=O)(=O)C(F)(F)F)cc2)n1` [Compound I-142], the IC50 was below 0.1 µM.

Take `Cc1nc(C)c(-c2csc(NC(=O)Cc3ccc(F)c(C#N)c3)n2)s1` [Compound I-78]: the IC50 was below 0.1 µM.

With `CC(=O)NC(C)c1nc(CO)sc1-c1csc(NC(=O)Cc2ccc(S(=O)(=O)C(F)(F)F)cc2)n1` (single isomer, unassigned) [Compound I-482], the IC50 lay within 0.1 to 1 µM.

With `Cc1nc(CN)sc1-c1csc(NC(=O)Cc2ccc(S(=O)(=O)C(F)(F)F)cc2)n1` [Compound I-396], the IC50 is below 0.1 µM.

For the compound `Cc1nc(C)c(-c2csc(NC(=O)Cc3ccc(NC(=O)c4ccccc4)cc3)n2)s1` [Compound I-413], the half-inhibitory concentration (IC50) fell in the range of 0.1 to 1 µM.

Regarding `Cc1nc(C)c(-c2csc(NC(=O)C3CN(c4ccc(C(F)(F)F)cc4)C3)n2)s1` [Compound I-497], the IC50 is below 0.1 µM.

Turning to `Cc1nc(C)c(-c2csc(NC3CCCC3)n2)s1` [II-38], the IC50 was below 0.1 µM.

For the compound `Cc1nc(C)c(-c2csc(NC(=O)Cc3ccc(C(F)(F)F)cn3)n2)s1` [Compound I-118], the IC50 was in the range of 0.1 to 1 µM.

In the case of `Cc1nc(C)c(-c2csc(NC(=O)Cc3cc(N)cc(C(=O)N[C@H](c4ccccc4)C(F)(F)F)c3)n2)s1` [Compound I-518], the IC50 was below 0.1 µM.

As for `Cc1nc(CO)sc1-c1csc(NC(=O)CC2CCN(S(=O)(=O)CCC(F)(F)F)CC2)n1` [Compound I-452], the IC50 lay in the range of 1 to 8 µM.

On to `Cc1nc(CS(=O)(=O)C(F)(F)F)c(-c2csc(NC(=O)Cc3ccc(S(=O)(=O)C(F)(F)F)cc3)n2)s1` [Compound I-486], for which the IC50 lay in the range of 0.1 to 1 µM.

For the compound `Cc1nc(C)c(-c2csc(NC(=O)Cc3cc(Br)cc(C(=O)N[C@H](c4ccccc4)C(F)(F)F)c3)n2)s1` [Compound I-510], the IC50 is below 0.1 µM.

As to `CO[C@H]1C[C@@H](C(=O)Nc2nc(-c3sc(C)nc3C)cs2)C1` [Compound I-269], the IC50 lay within 1 to 8 µM.

As to `Cc1nc(C)c(-c2csc(NC(=O)[C@@H]3CC[C@H](c4ccccc4)N3)n2)s1` [Compound I-216], the IC50 fell in the range of 0.1 to 1 µM.

Regarding `Cc1nc(CO)sc1-c1csc(NC(=O)Cn2cc(C(F)(F)F)cn2)n1` [Compound I-136], the IC50 was below 0.1 µM.

For the compound `Cc1nc(C(C)O)oc1-c1csc(NC(=O)Cc2ccc(S(=O)(=O)C(F)(F)F)cc2)n1` (racemic) [Compound I-387], the IC50 lay within 0.1 to 1 µM.

In the case of `Cc1nc(C)c(-c2csc(NC(=O)Cn3cc(-c4ccccc4N(C)C)cn3)n2)s1` [Compound I-169], the IC50 was below 0.1 µM.

Take `Cc1nc(CO)sc1-c1csc(NC(=O)C2CC(c3ccccc3)=NO2)n1` (centres unmarked) [Compound I-207]: the IC50 was in the range of 0.1 to 1 µM.

In the case of `Cc1nc(C)c(-c2csc(NC(=O)[C@@H]3C[C@@H](Oc4ccccc4)CN3)n2)s1` [Compound I-244], the IC50 was in the range of 0.1 to 1 µM.

As for `Cc1nc(C)c(-c2csc(NC(=O)Cc3ccc(S(C)(=O)=O)cc3)n2)s1` [Compound I-119], the IC50 is 1 to 8 µM.

Consider `Cc1ccc(-c2csc(NC(=O)C3CC(F)C3)n2)s1` (centres unmarked) [II-5], for which the IC50 fell in the range of 0.1 to 1 µM.

On to `Cc1nc(C)c(-c2csc(NC(=O)CN3CCC[C@H](c4ccccc4)C3)n2)s1` [Compound I-184], for which the IC50 is below 0.1 µM.

Consider `O=C(Cc1ccc(S(=O)(=O)C(F)(F)F)cc1)Nc1nc(-c2sc(CO)nc2CCO)cs1` [Compound I-366], for which the IC50 was below 0.1 µM.

Regarding `O=C(Nc1nc(-c2sc(CO)nc2CO)cs1)C1CN(c2ccc(C(F)(F)F)cc2)C1` [Compound I-302], the IC50 is below 0.1 µM.

As for `Cc1nc(CO)sc1-c1csc(NC(=O)[C@H]2C[C@@H](N(C)Cc3ccc(C(F)(F)F)cc3)C2)n1` [Compound I-318], the IC50 was below 0.1 µM.

With `Cc1nc(C#N)sc1-c1csc(NC(=O)Cc2ccc(S(=O)(=O)C(F)(F)F)cc2)n1` [Compound I-402], the IC50 lay within 0.1 to 1 µM.

Turning to `Cc1nc(OCCOCc2ccccc2)sc1-c1csc(NC(=O)Cc2ccc(S(=O)(=O)C(F)(F)F)cc2)n1` [Compound I-446], the IC50 fell in the range of 1 to 8 µM.

On to `Cc1nc(CO)sc1-c1csc(NC(=O)Nc2ccc(C(F)(F)F)nc2)n1` [Compound I-447], for which the IC50 was below 0.1 µM.

For the compound `O=C(Nc1nc(-c2sc(CO)nc2CO)cs1)C1CC(c2ccccc2)C1` (centres unmarked) [Compound I-546], the IC50 was in the range of 0.1 to 1 µM.

Turning to `Cc1nc([C@H](C)O)sc1-c1csc(NC(=O)Cc2cc(Br)cc(C(=O)Nc3ccc(C(F)(F)F)cc3)c2)n1` [Compound I-523], the IC50 was below 0.1 µM.

Turning to `Cc1nc(C)c(-c2nc(NC(=O)Cc3c(F)cccc3F)sc2C(=O)NCc2ccccc2)s1` [Compound I-83], the IC50 was in the range of 1 to 8 µM.

On to `NC(=O)OCc1nc(CO)sc1-c1csc(NC(=O)Cc2ccc(S(=O)(=O)C(F)(F)F)cc2)n1` [Compound I-373], for which the IC50 was below 0.1 µM.

Consider `Cc1nc(CO)sc1-c1csc(NC(=O)[C@H]2C[C@@H](OCc3ccc(C(F)(F)F)cc3)C2)n1` [Compound I-335], for which the IC50 is below 0.1 µM.

As to `O=C(Nc1nc(-c2sc(CO)nc2CO)cs1)C1CCC(C(F)(F)F)CC1` (centres unmarked) [Compound I-254], the IC50 was below 0.1 µM.

For the compound `Cc1nc(CN2NCCC2=O)c(-c2csc(NC(=O)Cc3ccc(S(=O)(=O)C(F)(F)F)cc3)n2)s1` [Compound I-487], the IC50 fell in the range of 0.1 to 1 µM.

Regarding `Cc1nc(CO)sc1-c1csc(NC(=O)C2C[C@H](C(F)(F)F)CN2C(=O)OCC(F)(F)F)n1` (some centres unmarked) [Compound I-475], the IC50 lay within 0.1 to 1 µM.

In the case of `Cc1nc(CO)sc1-c1csc(NC(=O)[C@@H]2C[C@@H](c3ccccc3)CN2C(=O)OC(C)C)n1` [Compound I-315], the IC50 was below 0.1 µM.

For the compound `Cc1nc(C)c(-c2csc(NC(=O)Cc3cccc(C(=O)Nc4ccc(C(F)(F)F)cc4)n3)n2)s1` [Compound I-508], the IC50 was below 0.1 µM.
